{"source": "patent US11904038B2", "about": "(INDUSTRY-ACADEMIC COOPERATION FOUNDATION, YONSEI UNIVERSITY, priority 2017, dated 2024)", "key": {"[1]": {"system": "LEF", "assay": "RT-PCR mRNA expression of LEF", "format": "cell-based, human", "settings": "phellandrene 20 μM, 24 hours, FIG. 6", "procedure": "(§1) 24 hours after the treatment, the cells were collected and total RNA was extracted with Trizol Reagent (Gibco BRL, USA). The total RNA was quantified by absorbance measurement at 260 nm.\n(§2) After isolation of RNA, cDNA was synthesized by performing reverse transcription using oligo dT primers and SuperScript reverse transcriptase (GIBCOBRL, Gaithersburg, MD, USA). PCR was performed using, as a template, cDNA obtained through reverse transcription and using, as primers, 5′ and 3′ flanking sequences of the gene's cDNA to be amplified. Here, required primers were obtained by making a request for synthesis with a company specializing in primer manufacturing (BIONEER CORPORATION, Korea) and used. To a mixture obtained by mixing of 5 μl of 10× reaction buffer [100 mM KCL, 20 mM Tris-HCl (pH 8.0), 2.5 mM MgCl2], 4 μl of 10 mM dNTP, and 1 μl each of 0.2 μM sense and antisense primers, were added 2 μl of the completed cDNA reaction mixture and 2.5 unit of Taq polymerase (Takara, Japan). Then, the volume was adjusted with 50 μl of distilled water, and PCR was performed using a PCR instrument. PCR conditions were set to 94° C. for 4 minutes, 94° C. (30 seconds), 30 cycles of [52° C. (30 seconds), 72° C. (45 seconds)], and 72° C. for 10 minutes."}, "[2]": {"system": "β-catenin", "assay": "Western blot analysis of β-catenin", "format": "cell-based, human", "settings": "phellandrene 20 μM, protein, (B) of FIG. 5", "procedure": "(§3) Protein quantification was performed by Bradford assay.\n(§4) 40 μg of the protein was electrophoresed on 10% SDS polyacrylamide gel and then transferred to nitrocellulose membranes. The protein was allowed to react with each of PKA Cα, β-catenin, β-actin, and GAPDH antibody (Cell Signaling Technology, Danvers, MA, USA). Each protein's signal was visualized with a chemiluminescent detection system (Amersham), and then the band's thickness was quantified using the Quantity One Analysis Software (Bio-Rad Laboratories)."}, "[3]": {"system": "WEHI-3 murine leukemia cells", "settings": "in vitro, Lin et al. 2015; cited from earlier work"}, "[4]": {"system": "IGF-1", "assay": "RT-PCR mRNA expression of IGF-1", "format": "cell-based, human", "settings": "phellandrene 20 μM, 24 hours, FIG. 6", "procedure": "as §1, §2"}, "[5]": {"system": "neutrophil migration and mast cell stabilization", "settings": "Siqueira et al. 2016; cited from earlier work"}, "[6]": {"system": "PKA Cα", "assay": "Western blot analysis of PKA Cα", "format": "cell-based, human", "settings": "phellandrene 20 μM, protein, (A) of FIG. 5", "procedure": "as §3, §4"}, "[7]": {"system": "IGF-1", "assay": "human IGF-1 ELISA of culture solutions", "format": "cell-based", "settings": "phellandrene 20 μM, 24 hours, vs DMSO, (B) of FIG. 3", "procedure": "(§5) DMSO was used as a negative control group. The phellandrene-treated culture solutions were collected after 24 hours, and experiments were conducted using human VEGF ELISA Kit (Enzo Life Sciences, NY, USA), human IGF-1 ELISA kit (Enzo Life Sciences, NY, USA), and cAMP complete ELISA kit (Enzo Life Sciences, NY, USA), respectively, according to the manufacturers' protocol."}, "[8]": {"system": "VEGF", "assay": "human VEGF ELISA of culture solutions", "format": "cell-based", "settings": "phellandrene 20 μM, 24 hours, vs DMSO, (A) of FIG. 3", "procedure": "as §5"}, "[9]": {"system": "Cyc-D", "assay": "RT-PCR mRNA expression of Cyc-D", "format": "cell-based, human", "settings": "phellandrene 20 μM, 24 hours, FIG. 6", "procedure": "as §1, §2"}, "[10]": {"system": "cAMP", "assay": "cAMP complete ELISA", "format": "cell-based, human", "settings": "phellandrene 20 μM, 24 hours, vs DMSO, FIG. 4", "procedure": "as §5"}, "[11]": {"system": "VEGF", "assay": "RT-PCR mRNA expression of VEGF", "format": "cell-based, human", "settings": "phellandrene 20 μM, 24 hours, FIG. 6", "procedure": "as §1, §2"}, "[12]": {"system": "human hair dermal papilla cells", "assay": "MTT assay: cell viability and proliferation in human hair dermal papilla cells", "settings": "FIG. 2", "quoted_text": "Human hair dermal papilla cells were purchased from PromoCell GmbH (Heidelberg, Germany). The human hair dermal papilla cells were cultured in an incubator at 37° C., 5% CO2 using HFDPC medium (PromoCell, Germany) with fetal bovine serum (FBS) and Dulbecco's modified Eagle's medium (DMEM; Gibco BRL, Gaithersburg, MD, USA). Due to the nature of the cells, cells at passages 2 to 5 were used for all experiments.\nThe human hair dermal papilla cells were dispensed into 24-well plates to 1×10^5 cells/well, and then cultured for 24 hours in an incubator at 37° C., 5% CO2 so that the cells are stabilized. Treatment with samples at respective concentrations (0, 10, 20, 50, 100, 200, 400 μg/ml) was performed and culture was performed for 24 hours. Then, treatment with 100 ul of 3-(4,5-dimethylthiazol-2-yl)-2,5-diphenyltetrazolium bromide (MTT; Sigma Aldrich, St. Louis, USA) reagent at a concentration of 200 mg/ml was performed and culture was performed again for 4 hours. After removing the medium, the precipitate (formazan) was dissolved in DMSO and the absorbance was measured at a wavelength of 540 nm. A proliferation rate thereof was evaluated based on the absorbance of a control group containing only DMSO.\nThe group containing only DMSO was set as a control group. […] Then, culture was performed for 24 hours, and cell viability was measured through an MTT assay."}}, "data": [{"substance": "phellandrene", "values": [{"measurement": "increase in mRNA expression of LEF", "setting": "[1]", "value": 348, "unit": "%"}, {"measurement": "increase in expression of β-catenin in the cell nucleus", "setting": "[2]", "value": 30, "unit": "%"}, {"measurement": "known physiological function: apoptosis in leukemia cells", "setting": "[3]", "value": "induce apoptosis in leukemia cells"}, {"measurement": "increase in mRNA expression of IGF", "setting": "[4]", "value": 217, "unit": "%"}, {"measurement": "known physiological function: anti-inflammatory", "setting": "[5]", "value": "serve as an anti-inflammatory agent"}, {"measurement": "increase in expression of PKA Cα", "setting": "[6]", "value": 42, "unit": "%"}, {"measurement": "increase in concentration of IGF-1", "setting": "[7]", "value": 18, "unit": "%"}, {"measurement": "increase in concentration of VEGF", "setting": "[8]", "value": 27, "unit": "%"}, {"measurement": "increase in mRNA expression of Cyc-D", "setting": "[9]", "value": 250, "unit": "%"}, {"measurement": "increase in cAMP concentration", "setting": "[10]", "value": 30, "unit": "%"}, {"measurement": "increase in mRNA expression of VEGF", "setting": "[11]", "value": 247, "unit": "%"}, {"measurement": "proliferation rate increase", "setting": "[12]; phellandrene 10 μM", "value": 10.8, "unit": "%"}, {"measurement": "proliferation rate increase", "setting": "[12]; phellandrene 20 μM", "value": 24, "unit": "%"}, {"measurement": "proliferation rate increase", "setting": "[12]; phellandrene 50 μM", "value": 18, "unit": "%"}]}]}
